Where two headings read alike, the source gives them in different places.
Assays:
Pseudomonas aerugentoas = assay: Paper disc zone of inhibition test (Example Two); type: cell-based; conditions: 6-millimeter disc, 10 microliters, 24 hours
Protocol: (§1) A second sample of a dendrimer silver complex was tested against various concentrations of silver nitrate against both E. coli and Pseudomonas aerugentoas. The experiment was performed as follows: • 1. Prepare an inoculum of the test organisms by streaking the entire surface of agar plates, by the standard method for colony isolation, with ether E. coli or pseudomonas aerugentoas. The plates were incubated at 370 C for approximately 18 hours. • 2. Harvest all the growth on the test organism plates by flooding the plats with 9.0 ml of sterile distilled water per plate. Wash the harvested biomass by centrifugation for 1 hour at 3000 rpm, discarding the supernatant fluid, and resuspending in 9.0 ml of sterile distilled water. Resuspend harvested cell by vortex agitation for 1 minute. • 3. Inoculate test plates with 0.2 ml with the test organism prepare as described above. • 4. Place sterile 6-millimeter blank paper Discs on test plates and saturate with 10 microliters of the test substances. • 5. […]

E. coli = type: cell-based; conditions: 6-millimeter disc, 10 microliters, 24 hours
Protocol: as §1

O=[N+]([O-])[O-].[Ag+] [Silver Nitrate]
Pseudomonas (diameter of inhibitory zone) (Pseudomonas aerugentoas; 0.5% Silver Nitrate): 12 millimeters | Pseudomonas (diameter of inhibitory zone) (Pseudomonas aerugentoas; 1.0% Silver Nitrate): 9 millimeters | Pseudomonas (diameter of inhibitory zone) (Pseudomonas aerugentoas; 2.5% Silver Nitrate): 6 millimeters | Pseudomonas (diameter of inhibitory zone) (Pseudomonas aerugentoas; 5.0% Silver Nitrate): 6 millimeters | Pseudomonas (diameter of inhibitory zone) (Pseudomonas aerugentoas; 7.5% Silver Nitrate): 7 millimeters | Pseudomonas (diameter of inhibitory zone) (Pseudomonas aerugentoas; 10.0% Silver Nitrate): 11 millimeters | E. Coli (diameter of inhibitory zone) (E. coli; 0.5% Silver Nitrate): 6 millimeters | E. Coli (diameter of inhibitory zone) (E. coli; 1.0% Silver Nitrate): 6 millimeters | E. Coli (diameter of inhibitory zone) (E. coli; 2.5% Silver Nitrate): 6 millimeters | E. Coli (diameter of inhibitory zone) (E. coli; 5.0% Silver Nitrate): 6 millimeters | E. Coli (diameter of inhibitory zone) (E. coli; 7.5% Silver Nitrate): 6 millimeters | E. Coli (diameter of inhibitory zone) (E. coli; 10.0% Silver Nitrate): 6 millimeters
